Data on three compounds can be found in patent US10568978B2, “Radiopharmaceutical synthesis methods” (Lantheus Medical Imaging, Inc., priority 2012, dated 2020).

What all share (type): physicochemical
Data set [1] can be described thus: Filter retention: percent recovery of analyte after syringe-pump filtration, HPLC at 295 nm pre- and post-filtration. As for the experimental part:
In particular, compositions comprising BMS-747158-01 and BMS-747159-01 were prepared in water comprising absolute ethanol (4 wt. %) and sodium ascorbate (50 mg/mL; 5 wt. %) then loaded into plastic syringes (Norm-Ject™; 12 mL) and placed onto an automated syringe pump. Select filters were then placed on each respective syringe and the composition pumped through the units in a controlled fashion. In all cases, gravimetric analysis of the solution transfer process was performed in order to monitor efficiency of the liquid handling steps. Subsequent quantitative analysis of filter retention was then performed following HPLC determination of the absolute concentration of each analyte in both the pre- and post-filtered solutions; HPLC analysis with detection at 295 nm was performed according to established methods. The following equation was then utilized to determine the percent recovery for each analyte:
[formula] Note a higher value of percent recovery equates to lower retention of the respective analyte, and thus improved overall filter performance. The analysis described herein captures both the mass of the compound that is retained as well as the volume of liquid that is retained. As no normalization is performed, the analysis thus allows for direct comparison of relevant filter parameters.
The compositions comprising BMS-747158-01 and BMS-747159-01 were passed through a variety of filters, as described herein. Individual filter parameters varied in terms of both membrane and housing composition, overall filter diameter, and in some instances the applied coating (Table 1). Further, effects of both individual analyte concentration as well as the overall rate of filtration were also evaluated.

Data set [2] can be described thus: Measured log D (relative lipophilicity of analytes). To be noted: relative to BMS-747158-01.
A short description of data set [3]: Retention of flurpiridaz F 18 on PVDF, PTFE and RC filters with synthesis modules. The settings on record: Siemens Explora GN/LC (manual) and GE TracerLab MX (automated) modules; FIG. 9. From the text: This was particularly surprising since structurally and chemically, the PVDF filter is more similar to the PTFE filter than the RC filter. Further, the data substantiate that use of the RC filter membrane improves recovery of ^18F-bearing radiopharmaceuticals across multiple synthesis module platforms.

Regarding `CC(C)(C)n1ncc(OCc2ccc(COCCF)cc2)c(Cl)c1=O` [BMS-747158-01], the “retention by filter housing composition” value in data set [1] (HDPE and PP housings (no aromatic rings), filters of identical diameter, FIG. 5) was “retained lower amounts”. Moreover, in data set [1] (PTFE and RC filter membranes vs PVDF, FIG. 8), the “retention on PTFE and RC membranes in comparison to PVDF” value is reported as “retained lower amounts”. In data set [1] (PVDF membrane vs other membranes, filters of identical diameter, FIG. 4), the “retention by membrane composition” value was “retains the greatest amount”. In addition, in data set [1] (Pall PVDF filter, initial filtration, FIG. 6), the “retention after the initial filtration” value is “retained large amounts”.
Take `CC(C)(C)n1ncc(OCc2ccc(COCCO)cc2)c(Cl)c1=O` [BMS-747159-01]: the “lipophilicity (measured log D, relative)” value in data set [2] is “lower inherent lipophilicity”.
As for `CC(C)(C)n1ncc(OCc2ccc(COCC[18F])cc2)c(Cl)c1=O` [flurpiridaz F 18], the “retention on PTFE and RC filters vs PVDF filter” value in data set [3] is reported as “retain far less”.
